Consider four compounds from publication PMC7794631 (Medicinal Chemistry Research, 2021).

Like-named read-outs stand apart in the source and are kept apart here.

Series [1] concerns HCMV immediate-early protein 1 (IE1). The settings on record: infected and treated cells; cited from earlier work.
In series [2] the test system is IAV A/WS/33 (H1N1). Description: microbe, parasite or virus in culture. The conditions noted are these: Influenza A virus, H1N1, MDCK, 24 h.
For series [3], the system named is IAV A/WS/33 (H1N1).
The next series relates to HFFs. The series can be described thus: Cell viability assay. Format: cell-based, human. The conditions noted are these: read-out: CC50 (μM) ± s.d., 6 days, MTS assay, mean of 2–3 dose–response determinations. (Formazan colour is commonly taken as a measure of viable cells.)
The test system of the next series is MDCK cells. The settings on record: 24 h, T-1105 at 12.5 μM.
Series [4] deals with HCMV ADCREGFP
The conditions noted are these: cited from earlier work.

A further series deals with Huh-7 cells. The conditions noted are these: at 0.1 μM, Huh-7, 5 days.
Series [5] has as its system IAV A/WS/33 (H1N1). The conditions noted are these: cited from earlier work.
Series [6] has as its system HCMV ADCREGFP
The conditions noted are these: HFFs; for EC50: read-out: EC50 (μM) ± s.d., GFP reporter HCMV, GFP expression 6 days after compound, mean of 2–3 dose–response determinations.

Series [7] is described as follows: in vitro. The settings on record: dog.
Series [8] relates to HCMV immediate-early protein 2 (IE2). The settings on record: infected and treated cells; cited from earlier work.
The next series concerns HCoV-OC43. The conditions noted are these: at 1 μM, Huh7, 5 days.
The nature of series [9]: in vitro. The conditions noted are these: human, Compound only, percent viable cells ± standard deviation.
The mark [10] stands for this setting: MDCK CPE assay, p97 inhibitors 0.1, 0.25, 0.5 μM, T-1105 at 12.5 μM.

The CC50 is the concentration that lowers cell viability or growth by half. Broadly, the EC50 is the concentration needed to bring the measured effect to its halfway point. What is called viability is the share of living cells, or the viability signal relative to a control. The low end stands for more harm to the cells, the high end for less harm to the cells. With `Cc1cc(OCc2nnc(SC3CCCC3)n2-c2cccnc2)ccc1-c1ccc(S(C)(=O)=O)cc1` [NMS-873], in series [1], the IE1 expression entry is recorded as “not affected”. Besides, in the series with IAV A/WS/33 (H1N1) [2] (read-out: Compound + Virus, percent viable cells ± standard deviation, 0.1 μM, MDCK, 24 h), the inhibition at 0.1 µM worked out at 21 ± 7%. For the same compound, in the series on IAV A/WS/33 (H1N1) [2] (read-out: Compound + Virus, percent viable cells ± standard deviation, 0.25 μM, MDCK, 24 h), the inhibition at 0.25 µM amounted to 62 ± 6%. Besides, the “anti-IAV activity (in words)” value in the series on IAV A/WS/33 (H1N1) [3] (setting [10]) is listed as “Clear antiviral effects”. Further, the CC50 with HFFs is 4.1 ± 3.3 µM. In addition, the “cell viability in IAV assay (in words)” value in the series on MDCK cells is on record as “retention of cell viability”. Besides, in the series on HCMV ADCREGFP [4], the “HCMV replication (in words)” value was “reduced virus replication”. Further, the “effect on cell viability (in words)” value in the series with Huh-7 cells is reported as “clear effect on cell viability”. Moreover, the “IAV virus production (in words)” value in the series with IAV A/WS/33 (H1N1) [5] is listed as “inhibits virus production”. For the same compound, the “TI, tissue culture therapeutic index (CC50/EC50)” value in the series with HCMV ADCREGFP [6] (HCMV) came to 1.9. Besides, in the series on HCMV ADCREGFP [6], the 50% effective concentration (EC50) was 2.2 ± 2.5 µM. In the series “in vitro [7]”, the viability at 0.1 µM came to 89 ± 3%, the viability at 0.25 µM stood at 80 ± 2% and the viability at 0.5 µM is 94 ± 2%. Besides, the IE2 expression result in series [8] was “reduced”.

As to `CCC(CC)COC(=O)[C@H](C)N[P@](=O)(OC[C@H]1O[C@@](C#N)(c2ccc3c(N)ncnn23)[C@H](O)[C@@H]1O)Oc1ccccc1` [RDV, remdesivir], in the series on HCoV-OC43, the “protection against HCoV-OC43 CPE” value amounted to 100%.

On to `Cc1cc2c(C(N)=O)cccc2n1-c1nc2c(c(NCc3ccccc3)n1)COCC2` [CB-5083], for which the “anti-IAV activity (in words)” value with IAV A/WS/33 (H1N1) [3] is on record as “no detectable anti-IAV activity”. Further, the CC50 in the series with HFFs stood at 0.53 ± 0.1 µM. Further, the EC50 in the series with HCMV ADCREGFP [6] worked out at 0.72 ± 1.1 µM. The compound further came in with a viability at 0.1 µM in “in vitro [7]” of 97 ± 3%. In the series “in vitro [9]”, this compound came in with a viability at 0.25 µM of 59 ± 3% and a viability at 0.5 µM of 38 ± 1%.

`NC(=O)c1nccnc1O` [Compound T-1105, 3-hydroxypyrazine-2-carboxamide]: in the series on IAV A/WS/33 (H1N1) [3] (setting [10]), the “anti-IAV activity (in words)” value was “Clear antiviral effects”. Besides, the “cell viability in IAV assay (in words)” value in the series on MDCK cells was “retention of cell viability”.
